Measurements as given in paper PMC11899342, “Novel Triazeneindole Antibiotics: Synthesis and Hit-to-Lead Optimization” (International Journal of Molecular Sciences, 2025).

System: Wistar outbred rats
Assay: Single-dose acute toxicity, intragastric administration
Type: in vivo, rat
Settings: for Changes Appearance / Changes Behavior / Changes Body Weight / Changes Feed Intake / Changes Organ Histology / Changes Organ Weight / Changes Water Intake: 14-day follow-up; for Relative organ weight, Adrenal glands / Relative organ weight, Brain / Relative organ weight, Heart / Relative organ weight, Kidneys / Relative organ weight, Liver / Relative organ weight, Lungs with trachea / Relative organ weight, Ovaries / Relative organ weight, Spleen / Relative organ weight, Thymus / Relative organ weight, Testes: after 15 days, M±SEM; for number of animals that died: all dose groups; for Deaths (Dead/ Total): Wistar, rat, in vivo
Description: Before administration, the BX-SI043 substance was resuspended in a 1% starch solution. The animals in the treatment groups received suspensions intragastrically in doses of 2000 mg/kg (administered in two equal doses, with a 30–40 min interval), 1000 mg/kg, 600 mg/kg, and 300 mg/kg (administered in single doses).
The animals were monitored daily for any abnormalities. On the 2nd, 7th, and 13th days after administration, the animals were clinically evaluated and weighed, and the consumption of feed and water were measured. On the 14th day, the behavior of the animals was evaluated. On the 15th day, the animals were euthanized, and the lungs (with trachea), heart, thymus, liver, kidneys, spleen, stomach, small intestine, colon, brain, adrenal glands, and testes/ovaries were fixed in 10% neutral formalin for histological evaluation.

[1] = female rats, 300 mg/kg intragastric
[2] = female rats, 600 mg/kg intragastric
[3] = female rats, 1000 mg/kg intragastric
[4] = female rats, 2000 mg/kg intragastric
[5] = male rats, 300 mg/kg intragastric
[6] = male rats, 600 mg/kg intragastric
[7] = male rats, 1000 mg/kg intragastric
[8] = male rats, 2000 mg/kg intragastric

CCOC(=O)c1[nH]c2cc(F)ccc2c1/N=N/N1CCCC1 [BX-SI043, Ethyl (E)-6-fluoro-3-(pyrrolidin-1-yldiazenyl)-1H-indole-2-carboxylate]
Changes Appearance [1]: no | Changes Behavior [1]: no | Changes Body Weight [1]: no | Changes Feed Intake [1]: no | Changes Organ Histology [1]: no | Changes Organ Weight [1]: no | Changes Water Intake [1]: no | Relative organ weight, Adrenal glands [1]: 0,03±0,003 % of body weight | Relative organ weight, Brain [1]: 0,84±0,032 % of body weight | Relative organ weight, Heart [1]: 0,46±0,012 % of body weight | Relative organ weight, Kidneys [1]: 0,87±0,065 % of body weight | Relative organ weight, Liver [1]: 4,79±0,090 % of body weight | Relative organ weight, Lungs with trachea [1]: 0,77±0,037 % of body weight | Relative organ weight, Ovaries [1]: 0,067±0,0043 % of body weight | Relative organ weight, Spleen [1]: 0,37±0,033 % of body weight | Relative organ weight, Thymus [1]: 0,280±0,016 % of body weight | Body weight, M±SEM (female rats, 300 mg/kg intragastric, experiment day 1): 195,3±3,67 g | Body weight, M±SEM (female rats, 300 mg/kg intragastric, experiment day 2): 194,8±3,92 g | Body weight, M±SEM (female rats, 300 mg/kg intragastric, experiment day 7): 220,0±7,86 g | Body weight, M±SEM (female rats, 300 mg/kg intragastric, experiment day 15): 234,7±9,33 g | Changes Appearance [2]: no | Changes Behavior [2]: no | Changes Body Weight [2]: no | Changes Feed Intake [2]: no | Changes Organ Histology [2]: yes | Changes Organ Weight [2]: no | Changes Water Intake [2]: no | Relative organ weight, Adrenal glands [2]: 0,04±0,002 % of body weight | Relative organ weight, Brain [2]: 0,86±0,031 % of body weight | Relative organ weight, Heart [2]: 0,48±0,007 % of body weight | Relative organ weight, Kidneys [2]: 0,78±0,021 % of body weight | Relative organ weight, Liver [2]: 4,64±0,067 % of body weight | Relative organ weight, Lungs with trachea [2]: 0,82±0,044 % of body weight | Relative organ weight, Ovaries [2]: 0,066±0,0032 % of body weight | Relative organ weight, Spleen [2]: 0,33±0,045 % of body weight | Relative organ weight, Thymus [2]: 0,310±0,013 % of body weight | Body weight, M±SEM (female rats, 600 mg/kg intragastric, experiment day 1): 195,2±4,56 g | Body weight, M±SEM (female rats, 600 mg/kg intragastric, experiment day 2): 207,7±4,08 g | Body weight, M±SEM (female rats, 600 mg/kg intragastric, experiment day 7): 222,5±5,43 g | Body weight, M±SEM (female rats, 600 mg/kg intragastric, experiment day 15): 221,2±5,98 g | Changes Appearance [3]: no | Changes Behavior [3]: yes | Changes Body Weight [3]: no | Changes Feed Intake [3]: yes | Changes Organ Histology [3]: yes | Changes Organ Weight [3]: no | Changes Water Intake [3]: no | Relative organ weight, Adrenal glands [3]: 0,04±0,004 % of body weight | Relative organ weight, Brain [3]: 0,97±0,022 % of body weight | Relative organ weight, Heart [3]: 0,52±0,02 % of body weight | Relative organ weight, Kidneys [3]: 0,82±0,027 % of body weight | Relative organ weight, Liver [3]: 4,67±0,23 % of body weight | Relative organ weight, Lungs with trachea [3]: 0,79±0,057 % of body weight | Relative organ weight, Ovaries [3]: 0,085±0,0075 % of body weight | Relative organ weight, Spleen [3]: 0,42±0,05 % of body weight | Relative organ weight, Thymus [3]: 0,270±0,020 % of body weight | Body weight, M±SEM (female rats, 1000 mg/kg intragastric, experiment day 1): 185,7±4,61 g | Body weight, M±SEM (female rats, 1000 mg/kg intragastric, experiment day 2): 192,2±3,94 g | Body weight, M±SEM (female rats, 1000 mg/kg intragastric, experiment day 7): 189,6±6,16 g | Body weight, M±SEM (female rats, 1000 mg/kg intragastric, experiment day 15): 199,2±6,46 g | Changes Appearance [4]: yes | Changes Behavior [4]: yes | Changes Body Weight [4]: no | Changes Feed Intake [4]: yes | Changes Organ Histology [4]: yes | Changes Organ Weight [4]: no | Changes Water Intake [4]: no | Relative organ weight, Adrenal glands [4]: 0,04±0,004 % of body weight | Relative organ weight, Brain [4]: 0,93±0,027 % of body weight | Relative organ weight, Heart [4]: 0,41±0,079 % of body weight | Relative organ weight, Kidneys [4]: 0,89±0,033 % of body weight | Relative organ weight, Liver [4]: 4,73±0,167 % of body weight | Relative organ weight, Lungs with trachea [4]: 0,9±0,07 % of body weight | Relative organ weight, Ovaries [4]: 0,088±0,0092 % of body weight | Relative organ weight, Spleen [4]: 0,38±0,028 % of body weight | Relative organ weight, Thymus [4]: 0,310±0,032 % of body weight | Body weight, M±SEM (female rats, 2000 mg/kg intragastric, experiment day 1): 196,5±2,06 g | Body weight, M±SEM (female rats, 2000 mg/kg intragastric, experiment day 2): 205,8±1,64 g | Body weight, M±SEM (female rats, 2000 mg/kg intragastric, experiment day 7): 183,5±11,99 g | Body weight, M±SEM (female rats, 2000 mg/kg intragastric, experiment day 15): 210,8±5,91 g | number of animals that died (female rats): 2 animals | Deaths (Dead/ Total) (female, 300 mg/kg, 14 days): 0/6 | Deaths (Dead/ Total) (female, 600 mg/kg, 14 days): 0/6 | Deaths (Dead/ Total) (female, 1000 mg/kg, 14 days): 1/6 | Deaths (Dead/ Total) (female, 2000 mg/kg, 14 days): 1/6 | Changes Appearance [5]: no | Changes Behavior [5]: no | Changes Body Weight [5]: no | Changes Feed Intake [5]: no | Changes Organ Histology [5]: no | Changes Organ Weight [5]: no | Changes Water Intake [5]: no | Relative organ weight, Adrenal glands [5]: 0,022±0,0012 % of body weight | Relative organ weight, Brain [5]: 0,77±0,020 % of body weight | Relative organ weight, Heart [5]: 0,45±0,012 % of body weight | Relative organ weight, Kidneys [5]: 0,98±0,046 % of body weight | Relative organ weight, Liver [5]: 4,53±0,26 % of body weight | Relative organ weight, Lungs with trachea [5]: 0,71±0,034 % of body weight | Relative organ weight, Spleen [5]: 0,34±0,017 % of body weight | Relative organ weight, Testes [5]: 1,17±0,039 % of body weight | Relative organ weight, Thymus [5]: 0,246±0,0276 % of body weight | Body weight, M±SEM (male rats, 300 mg/kg intragastric, experiment day 1): 202,8±2,87 g | Body weight, M±SEM (male rats, 300 mg/kg intragastric, experiment day 2): 205,7±1,73 g | Body weight, M±SEM (male rats, 300 mg/kg intragastric, experiment day 7): 256,7±4,65 g | Body weight, M±SEM (male rats, 300 mg/kg intragastric, experiment day 15): 280,8±8,21 g | Changes Appearance [6]: no | Changes Behavior [6]: no | Changes Body Weight [6]: no | Changes Feed Intake [6]: no | Changes Organ Histology [6]: yes | Changes Organ Weight [6]: no | Changes Water Intake [6]: no | Relative organ weight, Adrenal glands [6]: 0,028±0,0017 % of body weight | Relative organ weight, Brain [6]: 0,77±0,013 % of body weight | Relative organ weight, Heart [6]: 0,50±0,013 % of body weight | Relative organ weight, Kidneys [6]: 0,94±0,031 % of body weight | Relative organ weight, Liver [6]: 4,69±0,216 % of body weight | Relative organ weight, Lungs with trachea [6]: 0,86±0,108 % of body weight | Relative organ weight, Spleen [6]: 0,32±0,036 % of body weight | Relative organ weight, Testes [6]: 1,28±0,033 % of body weight | Relative organ weight, Thymus [6]: 0,27±0,0191 % of body weight | Body weight, M±SEM (male rats, 600 mg/kg intragastric, experiment day 1): 201,3±2,80 g | Body weight, M±SEM (male rats, 600 mg/kg intragastric, experiment day 2): 222,2±2,63 g | Body weight, M±SEM (male rats, 600 mg/kg intragastric, experiment day 7): 253,3±4,15 g | Body weight, M±SEM (male rats, 600 mg/kg intragastric, experiment day 15): 274,3±6,51 g | Changes Appearance [7]: no | Changes Behavior [7]: yes | Changes Body Weight [7]: no | Changes Feed Intake [7]: yes | Changes Organ Histology [7]: yes | Changes Organ Weight [7]: no | Changes Water Intake [7]: no | Relative organ weight, Adrenal glands [7]: 0,027±0,0022 % of body weight | Relative organ weight, Brain [7]: 0,77±0,036 % of body weight | Relative organ weight, Heart [7]: 0,51±0,022 % of body weight | Relative organ weight, Kidneys [7]: 0,87±0,008 % of body weight | Relative organ weight, Liver [7]: 4,91±0,128 % of body weight | Relative organ weight, Lungs with trachea [7]: 1,00±0,096 % of body weight | Relative organ weight, Spleen [7]: 0,32±0,031 % of body weight | Relative organ weight, Testes [7]: 1,11±0,064 % of body weight | Relative organ weight, Thymus [7]: 0,278±0,0278 % of body weight | Body weight, M±SEM (male rats, 1000 mg/kg intragastric, experiment day 1): 191,0±5,79 g | Body weight, M±SEM (male rats, 1000 mg/kg intragastric, experiment day 2): 206,5±6,61 g | Body weight, M±SEM (male rats, 1000 mg/kg intragastric, experiment day 7): 231,8±12,48 g | Body weight, M±SEM (male rats, 1000 mg/kg intragastric, experiment day 15): 273,0±11,56 g | Changes Appearance [8]: yes | Changes Behavior [8]: yes | Changes Body Weight [8]: no | Changes Feed Intake [8]: yes | Changes Organ Histology [8]: yes | Changes Organ Weight [8]: no | Changes Water Intake [8]: no | Relative organ weight, Adrenal glands [8]: 0,026±0,0014 % of body weight | Relative organ weight, Brain [8]: 0,78±0,024 % of body weight | Relative organ weight, Heart [8]: 0,48±0,046 % of body weight | Relative organ weight, Kidneys [8]: 0,90±0,034 % of body weight | Relative organ weight, Liver [8]: 4,08±0,252 % of body weight | Relative organ weight, Lungs with trachea [8]: 0,75±0,037 % of body weight | Relative organ weight, Spleen [8]: 0,28±0,018 % of body weight | Relative organ weight, Testes [8]: 1,2±0,120 % of body weight | Relative organ weight, Thymus [8]: 0,20±0,0116 % of body weight | Body weight, M±SEM (male rats, 2000 mg/kg intragastric, experiment day 1): 196,0±1,61 g | Body weight, M±SEM (male rats, 2000 mg/kg intragastric, experiment day 2): 212,7±3,91 g | Body weight, M±SEM (male rats, 2000 mg/kg intragastric, experiment day 7): 236,0±1,53 g | Body weight, M±SEM (male rats, 2000 mg/kg intragastric, experiment day 15): 259,7±3,18 g | number of animals that died (male rats): 4 animals | Deaths (Dead/ Total) (male, 300 mg/kg, 14 day): 0/6 | Deaths (Dead/ Total) (male, 600 mg/kg, 14 day): 0/6 | Deaths (Dead/ Total) (male, 1000 mg/kg, 14 day): 1/6 | Deaths (Dead/ Total) (male, 2000 mg/kg, 14 day): 3/6
